Measured values reported in US10106538B2, “Inhibitors of protein kinases” (PRINCETON DRUG DISCOVERY INC, priority 2015, dated 2018).
Blank lines part the entries; values can stand above or below the compound they belong to.

Key:
[1] = test system: breast cancer cell line T-47D; experiment: Cell growth assay with breast cancer cell line T-47D; type: cell-based; conditions: Homo sapiens, T47D, 72 h, T-47D cells, PrestoBlue Cell Viability reagent, read-out: IC50 inhibition of cell growth
Experimental: […] of the complete medium was then gently dispersed over the surface of the cell layer for several times. The cell concentration was adjusted to 1×10^4 cells/mL with the complete medium. A 100 μL aliquot of the cell suspension was added to the well of a 96-well plate, and the plate was incubated overnight at 37° C. under 5% CO2 with saturated humidity. On the next day, the medium in each well was aspirated and replaced with a 100 μL aliquot of pre-warmed complete medium at 37° C. in the presence or absence of the test compounds at various concentrations from 0-100 μM. The test compounds were dissolved in DMSO, and the final DMSO concentration in the cell culture was no more than 1%. The plate was incubated for 72 hours at 37° C. under 5% CO2 with saturated humidity. At end of the cell culture a 10 μL aliquot of PrestoBlue® Cell Viability reagent (ThermoFisher Scientific) was added into the well and the plate was incubated at 37° C. for 30 min. The absorption at 570 and 600 nm were measured with a SpectraMax Microplate reader (Molecular Devices), The absorbance at […] was normalized to that at 600 nm.

PDGFRα(V561D) = target: T1, PDGFRα(V561D) (Homo sapiens, UniProt P16234, V561D); experiment: Off-chip Mobility Shift Assay (MSA) kinase inhibition; type: biochemical
T1 construct: purchased Carna Biosciences
T1 sequence (P16234 24-1089 V561D): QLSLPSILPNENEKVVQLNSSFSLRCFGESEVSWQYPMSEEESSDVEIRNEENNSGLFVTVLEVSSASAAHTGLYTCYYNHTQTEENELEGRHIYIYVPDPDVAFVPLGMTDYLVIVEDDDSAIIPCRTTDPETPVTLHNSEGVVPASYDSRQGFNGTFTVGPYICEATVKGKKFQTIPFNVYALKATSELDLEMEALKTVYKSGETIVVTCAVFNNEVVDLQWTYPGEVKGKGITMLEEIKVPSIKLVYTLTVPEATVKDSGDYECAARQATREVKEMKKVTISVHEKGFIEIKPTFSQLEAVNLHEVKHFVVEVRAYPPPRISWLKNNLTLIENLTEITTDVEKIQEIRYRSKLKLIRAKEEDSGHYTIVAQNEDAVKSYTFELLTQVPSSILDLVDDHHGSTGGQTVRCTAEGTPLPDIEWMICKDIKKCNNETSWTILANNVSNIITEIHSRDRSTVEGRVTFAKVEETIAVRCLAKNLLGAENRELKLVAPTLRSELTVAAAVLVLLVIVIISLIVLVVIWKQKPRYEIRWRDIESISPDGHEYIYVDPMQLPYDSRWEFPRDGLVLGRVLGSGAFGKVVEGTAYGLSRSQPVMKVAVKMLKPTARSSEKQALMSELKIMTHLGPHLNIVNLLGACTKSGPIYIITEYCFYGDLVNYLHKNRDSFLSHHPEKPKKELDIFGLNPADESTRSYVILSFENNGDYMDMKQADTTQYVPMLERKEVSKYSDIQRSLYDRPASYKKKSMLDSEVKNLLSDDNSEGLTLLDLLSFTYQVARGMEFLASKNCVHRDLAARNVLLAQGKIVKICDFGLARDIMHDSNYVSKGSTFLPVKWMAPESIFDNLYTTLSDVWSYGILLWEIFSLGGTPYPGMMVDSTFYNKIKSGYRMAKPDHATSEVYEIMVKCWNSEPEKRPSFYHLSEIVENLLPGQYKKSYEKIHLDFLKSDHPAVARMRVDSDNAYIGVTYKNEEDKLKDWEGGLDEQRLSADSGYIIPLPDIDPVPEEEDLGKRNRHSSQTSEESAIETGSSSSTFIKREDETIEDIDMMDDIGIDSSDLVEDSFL
Experimental: (§1) Off-chip Mobility Shift Assay (MSA) by Cama Biosciences, Inc (Natick, Mass.) a used for measuring the kinase activity and inhibition. • 1) The 5 μL of x4 compound solution, 5 μL of x4 Substrate/ATP/Metal solution, and 10 μL of x2 kinase solution were prepared with assay buffer (20 mM HEPES, 0.01% Triton X100, 2 mM DTT, pH 7.5) and mixed and incubated in a well of polypropylene 384 well microplate for 1 or 5 hour(s)* at room temperature. (*; depending on kinase) • 2) 70 μL of Termination Buffer (QuickScout Screening Assist A; Cama Biosciences) was added to the welt • 3) The reaction mixture was applied to LabChip system (Perkin Elmer), and the product and substrate peptide peaks were separated and quantitated. • 4) The kinase reaction was evaluated by the product ratio calculated from peak heights of product (P) and substrate (S) peptides (P/(P+S)). • 5) The reaction conditions were followed according to assay protocols of Ca n Biosciences, Inc (BMA 3F, 1-5-5 Minatojima-Minamimachi, Chuo-ku, Kobe 650-0047, Japan; www.carnabio.com). • 6 Data analysis: The readout value of reaction control (complete reaction mixture) was set as a 0% inhibition, and the readout value of background (Enzyme (−)) was set as a 100% inhibition, then the percent inhibition of each test solution was calculated, […]

PDGFRα(D842V) = target: T2, PDGFRα(D842V) (Homo sapiens, UniProt P16234, D842V); experiment: as above; type: biochemical
T2 construct: purchased Carna Biosciences
T2 sequence (P16234 24-1089 D842V): as the sequence (P16234 24-1089 V561D) above, with D538V, D819V counted along it
Experimental: as §1

PDGFRα(T674I) = target: T3, PDGFRα(T674I) (Homo sapiens, UniProt P16234, T674I); experiment: as above; type: biochemical
T3 construct: purchased Carna Biosciences
T3 sequence (P16234 24-1089 T674I): as the sequence (P16234 24-1089 V561D) above, with D538V, T651I counted along it
Experimental: as §1

FYN(isoform b) = target: T4, FYN(isoform b) (Homo sapiens, UniProt P06241); experiment: as above; type: biochemical
T4 construct: purchased Carna Biosciences
T4 sequence (P06241 1-534 isoform P06241-2): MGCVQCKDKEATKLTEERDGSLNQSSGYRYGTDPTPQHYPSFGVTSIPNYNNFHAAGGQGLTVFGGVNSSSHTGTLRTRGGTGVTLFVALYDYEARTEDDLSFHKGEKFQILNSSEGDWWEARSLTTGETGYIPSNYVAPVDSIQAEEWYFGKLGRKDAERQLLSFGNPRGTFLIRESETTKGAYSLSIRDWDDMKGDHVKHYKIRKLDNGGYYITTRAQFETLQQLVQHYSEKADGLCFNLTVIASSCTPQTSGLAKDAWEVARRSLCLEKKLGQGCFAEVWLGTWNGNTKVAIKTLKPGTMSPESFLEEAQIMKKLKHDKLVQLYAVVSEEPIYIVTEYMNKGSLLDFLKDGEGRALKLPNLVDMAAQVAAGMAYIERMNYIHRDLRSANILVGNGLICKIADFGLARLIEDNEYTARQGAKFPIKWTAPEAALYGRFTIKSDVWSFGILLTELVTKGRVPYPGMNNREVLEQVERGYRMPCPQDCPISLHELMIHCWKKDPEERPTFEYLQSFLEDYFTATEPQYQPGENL
Experimental: as §1

RET(S891A) = target: T5, RET(S891A) (Homo sapiens, UniProt P07949, S891A); experiment: as above; type: biochemical
T5 construct: purchased Carna Biosciences
T5 sequence (P07949 29-1114 S891A): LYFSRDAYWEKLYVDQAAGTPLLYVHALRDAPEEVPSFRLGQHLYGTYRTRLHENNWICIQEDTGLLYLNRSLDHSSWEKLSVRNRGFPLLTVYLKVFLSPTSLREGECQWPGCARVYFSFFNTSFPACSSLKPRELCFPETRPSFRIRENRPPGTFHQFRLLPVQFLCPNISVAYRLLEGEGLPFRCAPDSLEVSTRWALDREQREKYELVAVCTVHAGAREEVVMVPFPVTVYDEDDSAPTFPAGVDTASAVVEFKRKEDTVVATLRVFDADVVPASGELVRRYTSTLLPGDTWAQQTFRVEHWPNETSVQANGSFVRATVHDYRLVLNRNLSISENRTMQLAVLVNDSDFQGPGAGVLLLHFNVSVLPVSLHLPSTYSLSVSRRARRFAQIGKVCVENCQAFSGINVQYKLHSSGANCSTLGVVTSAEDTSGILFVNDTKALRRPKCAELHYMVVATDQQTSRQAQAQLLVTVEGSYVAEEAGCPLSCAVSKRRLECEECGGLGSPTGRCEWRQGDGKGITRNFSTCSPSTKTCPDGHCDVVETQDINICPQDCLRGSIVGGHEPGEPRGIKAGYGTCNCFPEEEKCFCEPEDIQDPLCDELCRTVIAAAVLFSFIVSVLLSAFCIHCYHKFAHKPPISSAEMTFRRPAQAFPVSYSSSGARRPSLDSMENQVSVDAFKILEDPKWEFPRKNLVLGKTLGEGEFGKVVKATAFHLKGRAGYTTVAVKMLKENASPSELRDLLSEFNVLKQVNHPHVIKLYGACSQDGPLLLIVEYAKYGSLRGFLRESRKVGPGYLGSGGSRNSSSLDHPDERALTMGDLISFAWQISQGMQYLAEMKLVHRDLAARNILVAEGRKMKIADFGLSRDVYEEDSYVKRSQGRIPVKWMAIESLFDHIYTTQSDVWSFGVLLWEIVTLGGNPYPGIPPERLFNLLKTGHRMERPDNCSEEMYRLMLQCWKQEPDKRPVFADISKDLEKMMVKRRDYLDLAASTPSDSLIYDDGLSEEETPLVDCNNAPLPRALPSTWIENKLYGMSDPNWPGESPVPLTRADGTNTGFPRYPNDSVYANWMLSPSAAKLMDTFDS
Experimental: as §1

EPHA5 = target: T6, EPHA5 (Homo sapiens, UniProt P54756); experiment: as above; type: biochemical; conditions: inhibitor concentration 1 μM
T6 construct: purchased Carna Biosciences
Experimental: as §1

CSK = target: T7, CSK (Homo sapiens, UniProt P41240); experiment: as above; type: biochemical
T7 construct: purchased Carna Biosciences
Experimental: as §1

PKD3 = target: T8, PKD3 (Homo sapiens, UniProt O94806); experiment: as above; type: biochemical; conditions: inhibitor concentration 1 μM
T8 construct: purchased Carna Biosciences
T8 sequence (O94806 whole entry): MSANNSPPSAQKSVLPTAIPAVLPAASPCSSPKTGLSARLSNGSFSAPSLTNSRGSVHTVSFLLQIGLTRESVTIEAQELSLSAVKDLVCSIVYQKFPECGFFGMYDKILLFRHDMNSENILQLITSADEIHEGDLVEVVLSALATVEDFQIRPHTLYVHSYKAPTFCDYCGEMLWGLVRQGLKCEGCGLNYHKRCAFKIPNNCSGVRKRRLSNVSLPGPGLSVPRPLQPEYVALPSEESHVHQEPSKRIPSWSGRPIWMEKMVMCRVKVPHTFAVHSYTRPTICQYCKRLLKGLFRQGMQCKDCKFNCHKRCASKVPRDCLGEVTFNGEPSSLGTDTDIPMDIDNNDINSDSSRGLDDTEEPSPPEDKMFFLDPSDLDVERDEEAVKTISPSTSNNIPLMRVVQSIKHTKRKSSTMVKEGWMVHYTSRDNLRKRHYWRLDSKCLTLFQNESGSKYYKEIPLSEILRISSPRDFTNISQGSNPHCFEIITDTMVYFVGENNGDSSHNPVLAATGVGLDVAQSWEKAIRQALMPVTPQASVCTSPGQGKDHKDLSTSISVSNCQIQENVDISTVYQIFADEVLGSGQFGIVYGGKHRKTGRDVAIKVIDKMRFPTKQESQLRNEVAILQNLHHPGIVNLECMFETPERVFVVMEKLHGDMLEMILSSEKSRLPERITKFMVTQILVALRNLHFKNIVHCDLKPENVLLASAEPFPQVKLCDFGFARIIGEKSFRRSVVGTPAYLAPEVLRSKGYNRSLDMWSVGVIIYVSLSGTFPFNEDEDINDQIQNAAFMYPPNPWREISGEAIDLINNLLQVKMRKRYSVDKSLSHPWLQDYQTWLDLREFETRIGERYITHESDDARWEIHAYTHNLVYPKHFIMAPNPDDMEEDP
Experimental: as §1

skMLCK = target: T9, skMLCK (Homo sapiens, UniProt Q9H1R3); experiment: as above; type: biochemical; conditions: inhibitor concentration 1 μM
T9 construct: purchased Carna Biosciences
Experimental: as §1

PKD1 = target: T10, PKD1 (Homo sapiens, UniProt Q15139); experiment: as above; type: biochemical; conditions: inhibitor concentration 1 μM
T10 construct: purchased Carna Biosciences
Experimental: as §1

RET(Y791F) = target: T11, RET(Y791F) (Homo sapiens, UniProt P07949, Y791F); experiment: as above; type: biochemical
T11 construct: purchased Carna Biosciences
T11 sequence (P07949 29-1114 Y791F): as the sequence (P07949 29-1114 S891A) above, with Y763F, A863S counted along it
Experimental: as §1

MST3 = target: T12, MST3 (Homo sapiens, UniProt Q9Y6E0); experiment: as above; type: biochemical; conditions: inhibitor concentration 1 μM
T12 construct: purchased Carna Biosciences
T12 sequence (Q9Y6E0 whole entry): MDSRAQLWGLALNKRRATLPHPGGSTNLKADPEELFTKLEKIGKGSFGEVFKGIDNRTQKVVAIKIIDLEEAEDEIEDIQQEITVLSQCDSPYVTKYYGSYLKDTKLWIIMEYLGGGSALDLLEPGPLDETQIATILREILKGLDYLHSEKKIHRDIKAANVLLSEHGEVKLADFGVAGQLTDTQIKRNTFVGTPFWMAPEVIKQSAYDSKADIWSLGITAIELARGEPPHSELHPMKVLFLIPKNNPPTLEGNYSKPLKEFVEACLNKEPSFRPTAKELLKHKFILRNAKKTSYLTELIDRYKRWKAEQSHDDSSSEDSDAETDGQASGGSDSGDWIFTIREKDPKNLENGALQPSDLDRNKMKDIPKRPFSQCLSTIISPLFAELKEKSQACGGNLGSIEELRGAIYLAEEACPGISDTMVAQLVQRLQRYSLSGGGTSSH
Experimental: as §1

MST2 = target: T13, MST2 (Homo sapiens, UniProt Q13188); experiment: as above; type: biochemical
T13 construct: purchased Carna Biosciences
T13 sequence (Q13188 1-491): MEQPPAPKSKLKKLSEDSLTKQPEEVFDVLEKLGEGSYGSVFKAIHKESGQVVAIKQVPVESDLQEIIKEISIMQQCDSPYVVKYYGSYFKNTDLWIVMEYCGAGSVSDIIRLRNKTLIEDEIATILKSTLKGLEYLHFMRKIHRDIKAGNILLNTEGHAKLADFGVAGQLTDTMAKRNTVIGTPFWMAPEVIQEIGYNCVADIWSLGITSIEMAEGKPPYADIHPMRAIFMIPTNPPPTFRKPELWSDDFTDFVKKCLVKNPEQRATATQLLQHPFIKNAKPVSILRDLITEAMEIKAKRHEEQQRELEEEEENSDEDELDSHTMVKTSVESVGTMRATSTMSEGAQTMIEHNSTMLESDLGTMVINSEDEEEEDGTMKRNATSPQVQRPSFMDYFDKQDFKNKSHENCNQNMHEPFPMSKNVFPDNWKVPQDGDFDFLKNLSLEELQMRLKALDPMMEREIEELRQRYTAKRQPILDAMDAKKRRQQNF
Experimental: as §1

YES(T348I) = target: T14, YES(T348I) (Homo sapiens, UniProt P07947, T348I); experiment: as above; type: biochemical; conditions: inhibitor concentration 1 μM
T14 construct: purchased Carna Biosciences
T14 sequence (P07947 whole entry T348I): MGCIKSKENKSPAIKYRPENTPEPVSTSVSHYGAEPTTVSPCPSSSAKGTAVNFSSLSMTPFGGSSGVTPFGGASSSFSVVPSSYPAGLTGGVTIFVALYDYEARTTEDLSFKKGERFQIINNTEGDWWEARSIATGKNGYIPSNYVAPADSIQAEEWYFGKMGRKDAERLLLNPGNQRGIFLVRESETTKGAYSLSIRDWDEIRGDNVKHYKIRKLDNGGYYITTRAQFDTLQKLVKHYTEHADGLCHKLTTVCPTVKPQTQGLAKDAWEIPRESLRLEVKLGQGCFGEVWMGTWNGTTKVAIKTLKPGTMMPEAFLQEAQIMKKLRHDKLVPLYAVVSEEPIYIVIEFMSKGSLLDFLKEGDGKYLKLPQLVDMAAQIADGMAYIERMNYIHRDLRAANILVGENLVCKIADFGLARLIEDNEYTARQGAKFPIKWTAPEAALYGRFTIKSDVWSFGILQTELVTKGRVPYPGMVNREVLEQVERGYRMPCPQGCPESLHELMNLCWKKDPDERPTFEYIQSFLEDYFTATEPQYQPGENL
Experimental: as §1

KIT(D816E) = target: T15, KIT(D816E) (Homo sapiens, UniProt P10721, D816E); experiment: as above; type: biochemical; conditions: inhibitor concentration 1 μM
T15 construct: purchased Carna Biosciences
Experimental: as §1

RET(M918T) = target: T16, RET(M918T) (Homo sapiens, UniProt P07949, M918T); experiment: as above; type: biochemical
T16 construct: purchased Carna Biosciences
T16 sequence (P07949 29-1114 M918T): as the sequence (P07949 29-1114 S891A) above, with A863S, M890T counted along it
Experimental: as §1

[2] = inhibitor concentration 0.01 μM, 0.01 µM
[3] = inhibitor concentration 0.01 μM

IC50 [1]: < 20 µM
Compound: O=C(c1c(F)ccc(NS(=O)(=O)CC(O)CO)c1F)c1c[nH]c2ncc(-c3ccc(Cl)cc3)cc12 (stereo not drawn) [200-73, N-[3-[5-(4-chlorophenyl)-lH-pyrrolo [2,3-b]pyridine-3-carbonyl]-2,4-difluorophenyl]-2,3-dihydroxypropane-l-sulfonamide]

PDGFRα(V561D) inhibition (PDGFRα(V561D); [2]): <20%
PDGFRα(D842V) inhibition (PDGFRα(D842V); [2]): <20%
PDGFRα(T674I) inhibition (PDGFRα(T674I); [2]): <20%
IC50 [1]: < 20 µM
Compound: C/C=C/S(=O)(=O)Nc1ccc(F)c(C(=O)c2c[nH]c3ncc(-c4ccc(Cl)cc4)cc23)c1F [200-93b]

inhibition at 0.01 µM (FYN(isoform b); [3]): < 30%
inhibition at 0.1 µM (FYN(isoform b); inhibitor concentration 0.1 μM): < 50%
inhibition at 1 µM (FYN(isoform b); inhibitor concentration 1 μM): > 50%
inhibition at 0.01 µM (RET(S891A); [3]): < 30%
inhibition at 0.1 µM (RET(S891A); inhibitor concentration 0.1 μM): > 50%
inhibition at 1 µM (RET(S891A); inhibitor concentration 1 μM): > 50%
inhibition at 1 µM (EPHA5): < 50%
inhibition at 0.01 µM (CSK; [3]): < 30%
inhibition at 0.1 µM (CSK; inhibitor concentration 0.1 μM): > 50%
inhibition at 1 µM (CSK; inhibitor concentration 1 μM): > 50%
inhibition at 1 µM (PKD3): < 50%
inhibition at 1 µM (skMLCK): > 50%
inhibition at 1 µM (PKD1): < 50%
inhibition at 0.01 µM (PDGFRα(V561D); [3]): < 30%
inhibition at 0.1 µM (PDGFRα(V561D); inhibitor concentration 0.1 μM): > 50%
inhibition at 1 µM (PDGFRα(V561D); inhibitor concentration 1 μM): > 50%
inhibition at 1 µM (PDGFRα(D842V); inhibitor concentration 1 μM): > 50%
inhibition at 0.01 µM (RET(Y791F); [3]): < 30%
inhibition at 0.1 µM (RET(Y791F); inhibitor concentration 0.1 μM): < 50%
inhibition at 1 µM (RET(Y791F); inhibitor concentration 1 μM): > 50%
inhibition at 1 µM (MST3): < 50%
inhibition at 0.01 µM (MST2; [3]): < 30%
inhibition at 0.1 µM (MST2; inhibitor concentration 0.1 μM): < 50%
inhibition at 1 µM (MST2; inhibitor concentration 1 μM): > 50%
inhibition at 1 µM (YES(T348I)): > 50%
inhibition at 1 µM (KIT(D816E)): > 50%
inhibition at 1 µM (PDGFRα(T674I); inhibitor concentration 1 μM): < 50%
inhibition at 0.01 µM (RET(M918T); [3]): < 30%
inhibition at 0.1 µM (RET(M918T); inhibitor concentration 0.1 μM): < 50%
inhibition at 1 µM (RET(M918T); inhibitor concentration 1 μM): > 50%
IC50 [1]: < 20 µM
Compound: O=C(c1c(F)ccc(NS(=O)(=O)CCCO)c1F)c1c[nH]c2ncc(-c3ccc(Cl)cc3)cc12 [200-17, N-[3-[5-(4-chlorophenyl)-1H-pyrrolo[2,3-b]pyridine-3-carbonyl]-2,4-difluorophenyl]-3-hydroxypropane-1-sulfonamide]
